Experiments:
Assay type in all cases: in vivo, Wistar albino rats
[1] = tested on: Dox induced cardiac toxicity/remodeling; experiment: Blood analysis: serum biochemical levels (auto analyzer/ELISA kits) in doxorubicin induced cardiac toxicity/remodelling rats
From the text: Zinc Quantification, rat high sensitivity C-Reactive Protein, Fibrinogen invitro, IL-6, IL-10, Renin, Ang II, and CKMB Enzyme linked Immunosorbent Assay (ELISA) rat kits are procured from Abcam, Cambridge, United Kingdom.
Sufficient experimental animals Wistar albino rats approximately average weight of 170±20 g are obtained. The protocol is approved by Institutional Animal Ethical Committee, all animals are acclimatized for 7 days standard laboratory condition of 12-hr light/dark cycle, maintained at temperature of 22±2° C. with relative humidity of 50±5% in department of Biochemistry, Faculty of Science.
(§1) All the animals are randomly divided into 4 groups with six animals in each: 1) Normal control (NC), fed with standard semi purified diet along with normal drinking water, 2) Zam control (ZC) fed with standard semi purified diet along with Zam water p.o at libitum, 3) Doxorubicin or Dox control (DC), animals are injected with Dox (1 mg/kg bw) i.p. on first day of protocol fed with standard semi purified diet along with normal drinking water and 4) Dox+Zam (DZ) group injected with Dox (1 mg/kg bw) i.p. on first day of protocol, and treated with Zam water p.o at libitum, for 28 days. All the animals are on semi purified diet throughout the study period. Body weight of rats are recorded weekly and consumption of food and water is measured daily basis.
(§2) Physiological and behavioural changes are monitored in experimental rats for entire period of protocol. The protocol is terminated on 29th day, animals are sedated with diethyl ether for further process of organ harvesting and blood collection. Abdominal artery, punctured and blood is collected in centrifugal tubes approximately 3 ml/100 g body weight, allowed to clot at laboratory temperature for 30 minutes, centrifuged at 4° C. for 15 minutes at 4500 rpm. The supernatant serum, transferred to 1.5 ml tubes and kept at −80° C. for further analysis. Harvested heart and kidneys are weight, preserved in 10% phosphate buffered formaldehyde for histopathological analysis.
The serum biochemical levels of Zinc, Fibrinogen, Renin, IL-10,11-6, CRP, Ang II, and CKMB are analyzed by standard auto analyzer kits-Zinc quantification kit, Rat Fibrinogen ELISA kit, Rat Renin ELISA kit, IL-10 ELISA kit, I1-6 ELISA kit, CRP ELISA kit, Ang II ELISA kit, and CKMB ELISA kit from Abcam Cambridge, United Kingdom.

Gut microbiota = Gut microbiota analysis: 16S metagenomic analysis of stool DNA; conditions: DC group: Dox 1 mg/kg i.p., normal drinking water
Protocol: All the animals are randomly divided into 4 groups with six animals in each: 1) Normal control (NC), fed with standard semi purified diet along with normal drinking water, 2) Zam control (ZC) fed with standard semi purified diet along with Zam water p.o at libitum, 3) Doxorubicin or Dox control (DC), animals are injected with Dox (1 mg/kg bw) i.p. on first day of protocol fed with standard semi purified diet along with normal drinking water and 4) Dox+Zam (DZ) group injected with Dox (1 mg/kg bw) i.p. on first day of protocol, and treated with Zam water p.o at libitum, for 28 days. All the animals are on semi purified diet throughout the study period. Body weight of rats are recorded weekly and consumption of food and water is measured daily basis. Stool samples of rats are used to isolate the DNA by […] kit as per manufacturer's instructions. Briefly 250-300 mg of stool samples collected from lower intestine, in 2 ml tube weighted and thawed on ice. ASL buffer (1.5 ml) is added, vortexed for 3 minutes followed by incubation at 80° C. for 15 minutes. The incubated tubes are tapped every four minute and centrifuge at 14000 rpm for 15 minutes at room temperature. EX tablet is added to 1.5-2.0 ml of supernatant, followed by centrifugation for 5 minutes at 15000 rpm. The procedure continued with the addition of proteinase K (15 μl) and AL buffer, incubated for 10 minutes at 70° C. Approximately 300 μl of absolute alcohol or ethanol is added, centrifuged for 1 minute at 12000 rpm with addition of 500 μl of AW1 buffer to column above and centrifuge at 14000 rpm for 1 minute. The filtrate in collection tube is discarded, finally DNA is eluted and is evaluated on 1% agarose gel. The isolated sample of DNA is forwarded for 16S metagenomic analysis.

heart = experiment: Histopathological analysis of heart (H&E); conditions: DC group: Dox 1 mg/kg i.p., normal drinking water
Protocol: as §1
as §2, with “Harvested heart and kidneys are weight, preserved in 10% phosphate buffered formaldehyde for histopathological analysis.” left out

kidneys = experiment: Histopathological analysis of kidney (H&E); conditions: DC group: Dox 1 mg/kg i.p., normal drinking water
Protocol: as §1
as §2, with “Harvested heart and kidneys are weight, preserved in 10% phosphate buffered formaldehyde for histopathological analysis.” left out

[2] = DC group: Dox 1 mg/kg i.p., normal drinking water

COc1cccc2c1C(=O)c1c(O)c3c(c(O)c1C2=O)C[C@@](O)(C(=O)CO)C[C@@H]3O[C@H]1C[C@H](N)[C@H](O)[C@H](C)O1 [Doxorubicin]
Plasma CRP level ([1]; DC group: Dox 1 mg/kg bw i.p. day 1, normal drinking water): 13.40 ± 2.66 mg/dL
serum Zinc level ([1]; DC group: Dox 1 mg/kg bw i.p. day 1, normal drinking water, day 29): 0.55 ± 0.12 µg/mL
Ang II level [1, 2]: 16.00 ± 2.26 nmol/mL/min
CKMB level [1, 2]: 121.8±3.12 U/L
Fibrinogen concentration [1, 2]: 4.37±0.74
IL-6 [1, 2]: 3.36±1.32
plasma renin level [1, 2]: 1.02 ± 0.38 ng/mL/h
IL-10 ([1]; DC group: Dox single dose 1 mg/kg body weight): 3.73 ± 0.50 pg/mL
Firmicutes population (Gut microbiota): 33%
abundance of Bacteroidetes (Gut microbiota): 34%
abundance of Muribaculaceae (Gut microbiota): 26%
abundance of Proteobacteria (Gut microbiota): 17%
abundance of Romboutsia (Gut microbiota): 2%
histopathological evaluation of cardiac tissue (heart): focal areas of myocardial cell degeneration with increased intracellular spaces, high fat deposits, inflammatory cell infiltration and disrupted tissue orientation
histopathology of kidneys (kidneys): severe pathological lesions with tubular degeneration, tubular cast and tubular necrosis with eosinophilic infiltration
